Results taken from PMC5924788 (Frontiers in Chemistry, 2018).
Where two headings read alike, the source gives them in different places. Marks after values point to notes of the source that are not given here.

How the values were obtained:
HepG2 cells = test: Cytotoxicity in HepG2 cells (resazurin reduction); assay type: cell-based, human; settings: 48 h; for cellular metabolic activity (resazurin reduction), cytotoxicity: HepG2, 1, 10 and 50 μM
Protocol: Human hepatocellular carcinoma cells (HepG2, ECACC, UK) were also used in this study. Cells were cultured in low-glucose medium (5 mM) composed by Dulbecco's modified Eagle's medium (DMEM, D5030) supplemented with sodium pyruvate (0.11 g/L), sodium bicarbonate (3.7 g/L), HEPES (1.19 g/L), 6 mM glutamine and 10% fetal bovine serum (FBS) and 1% of antibiotic penicillin-streptomycin 100 × solution. HepG2 (2.5 × 10^4 cells/well) cells were seeded in a 96-well plate and proliferate for 24 h before treatment.
(§1) The cytotoxicity profile of the compounds under study was evaluated in differentiated SH-SY5Y cells (8,000 cells/well), according the differentiation protocol previously described, and in HepG2 cells (2.5 × 10^4 cells/well), seeded into 96-well plates. […]. In both assays, the reduction of MTT tetrazolium salt or resazurin to MTT formazan or resorufin, respectively, by cellular dehydrogenases present in viable cells, gives insights on cell metabolic activity.
Regarding the resazurin reduction assay, after the incubation time, the medium was replaced by fresh medium containing resazurin (10 μg/mL) prepared in sterile PBS (1X) and left to react for 1 h. The fluorescent signal was monitored using a 540 nm excitation wavelength and 590 nm emission wavelength in a Cytation 3 reader (BioTek Instruments Inc., USA). The percentage of resazurin reduction relative to that of the control cells was used as the cytotoxicity measure [resazurin reduction (% of control)] as means ± SEM of four independent experiments.

SH-SY5Y cells [1] = test: Cytotoxicity in differentiated SH-SY5Y cells (MTT reduction); assay type: cell-based, human; settings: 24 h; for cellular metabolic activity (MTT reduction), cytotoxicity: differentiated SH-SY5Y, 1, 10 and 50 μM
Protocol: SH-SY5Y (ATCC, Manassas, VA, USA), a neuroblastoma cell line, was routinely cultured in 75-cm^2 flasks (Corning Costar, Corning, NY, USA) using DMEM with 4.5 g/L glucose, supplemented with 10% heat-inactivated FBS (v/v), 1% NEAA (v/v), 100 U/mL penicillin, and 100 μg/mL streptomycin. The cells used for all the experiments were taken between the 37th and 45th passages, to avoid phenotypic changes. […] Three days after seeding, the medium of cells was changed, adding cell culture medium with 0.1% of TPA for more 3 days before treatment.
as §1
For the MTT assay, the cell culture medium was removed after the incubation time, followed by the addition of fresh cell culture medium containing 0.5 mg/mL MTT and incubation for 30 min. After this incubation period, the cell culture medium was removed, and the formed formazan crystals dissolved in DMSO. The absorbance was measured at 550 nm in a multi-well plate reader (BioTek Instruments, Vermont, USA). The percentage of MTT reduction relative to that of the control cells was used as the cytotoxicity measure [MTT reduction (% of control)] as means ± SEM of four independent experiments.

BChE [2] = molecular target: T1, BChE (Homo sapiens, UniProt P06276); test: biochemical
T1 construct: purchased Sigma-Aldrich Química S. A
Description: (§2) Acetylcholinesterase (AChE) from Electrophorus electricus (electric eel), butyrylcholinesterase (BChE) and acetylthiocholine iodide (ATCI), butyrylthiocholine iodide (BTCI), 5,5′-dithiobis-(2-nitrobenzoate) (DTNB), (4,5-dimethylthiazol-2-yl)-2,5-diphenyl tetrazolium (MTT) bromide and Dulbecco's modified Eagle's medium (DMEM) with 4.5 g/L glucose were obtained from Sigma-Aldrich Química S. A. Reagents used in cell culture, including nonessential amino acids (NEAA), heat inactivated fetal bovine serum (FBS), 0.05% trypsin/1 mM EDTA, antibiotic (10000 U/mL penicillin, 10,000 μg/mL streptomycin) and Hank's balanced salt solution (HBSS) were purchased from Gibco Laboratories. Dimethylsulfoxide (DMSO-d6), absolute ethanol and acetic acid were obtained from Merck. All reagents were of analytical grade or of the highest grade available.
(§3) Briefly, 100 μL of sodium phosphate buffer, 40 μL of DTNB, 20 μL of the test compounds/standard inhibitors and 20 μL of AChE or BChE were incubated for 5 min at 30°C in a 96-well microplate (BRANDplates, pureGradeTM, BRAND GMBH, Wertheim, Germany). After that, 20 μL of ATCI or BTCI was added, respectively. […] A control using 20 μL of sodium phosphate buffer instead of compound solution was also performed. The IC50 values were determined in triplicate from the dose-response inhibition curves and are expressed as mean ± standard deviation (SD).
(§4) ATCI and BTCI were used as substrates for AChE or BChE, respectively, generating thiocholine and acetate or butyrate.

BChE [3] = molecular target: T1, BChE; test: BChE-inhibitor kinetics (Lineweaver-Burk and Dixon plots); assay type: biochemical
Protocol: (§5) To evaluate the mechanism of AChE and BChE inhibition of the most promising compounds substrate-dependent kinetic experiments were performed. […] The results are presented as double reciprocal Lineweaver-Burk plots (1/V vs. 1/[S]). The kinetic data, namely Km and Vmax, were acquired employing Michaelis-Menten equation. The Ki values were estimated using Dixon plots, by replotting the slope of each Lineweaver-Burk plot vs. the inhibitor concentration. In the Dixon plots, the Ki value was obtained from the x-axis intercept (–Ki). The enzymatic reactions and measurements were performed using the same AChE and BChE assay conditions as described above (determined in triplicate). Linear regression analysis was performed using GraphPad Prism 5.0 (GraphPad Software, Inc.).
(§6) In order to understand the AChE and BChE inhibitory mechanism of the most promising ChE inhibitors, kinetic experiments were performed. […] Graphical analysis of the reciprocal Lineweaver–Burk plots was used to determine Michaelis-Menten reaction kinetic parameters (Km and Vmax).

SH-SY5Y cells [4] = test: Neuroprotection against Aβ1–42 peptide-induced cytotoxicity (resazurin reduction); settings: for neuroprotective effect against Aβ1–42 peptide-induced cytotoxicity: 10 μM pre-treatment 24 h, then Aβ1–42 25 μM 48 h
Protocol: The antioxidant efficiency of the new HBAc derivatives was evaluated in the presence of Aβ1–42 peptide. […] Aβ1–42 aliquots were then stored at −20°C until use (enriched oligomeric Aβ1–42 preparation).
Undifferentiated SH-SY5Y cells were seeded onto 96-well plates (8000 cells/well) and differentiated as previously described. […] After incubation time, cellular metabolic activity was determined using the resazurin reduction assay as previously described.
Aβ aggregation, the pathological hallmark of AD, is the most targeted biomarker in drug discovery and development for AD.

[5] = ref Teixeira et al. ([2017a]); cited from earlier work
[6] = mean ± SD; ref Teixeira et al. ([2017a]); cited from earlier work
[7] = mean ± SD; ref Teixeira et al. ([2017a]); cited from earlier work; remark: listed apart in the source
AChE [8] = molecular target: T2, AChE (Electrophorus electricus, UniProt O42275); test: AChE inhibition, Ellman's method; assay type: biochemical, Electrophorus electricus (electric eel)
T2 construct: purchased Sigma-Aldrich Química S. A
Description: as §2, §3, §4

[9] = Redox properties by differential pulse and cyclic voltammetry; assay type: physicochemical; settings: physiological pH 7.4, differential pulse voltammetry, glassy carbon electrode
Protocol: Voltammetric studies were performed using an Autolab PGSTAT12 potentiostat/galvanostat (Metrohm Autolab, Netherland) and a one-compartment glass electrochemical cell.

[10] = ABTS radical cation scavenging assay; settings: mean ± SD, triplicate
Protocol: (§7) The IC50 values were determined in triplicate from the dose-response inhibition curves and are expressed as mean ± standard deviation (SD).

[11] = DPPH radical scavenging assay; settings: mean ± SD, triplicate
Protocol: as §7

AChE [12] = molecular target: T2, AChE; test: AChE-inhibitor kinetics (Lineweaver-Burk and Dixon plots); assay type: biochemical, Electrophorus electricus (electric eel)
Protocol: as §5, §6

[13] = mean ± SD, triplicate, 30°C, read-out: IC50 BChE
[14] = Lineweaver-Burk plots, Vmax decreased, Km unchanged

T2 sequence (O42275 24-633): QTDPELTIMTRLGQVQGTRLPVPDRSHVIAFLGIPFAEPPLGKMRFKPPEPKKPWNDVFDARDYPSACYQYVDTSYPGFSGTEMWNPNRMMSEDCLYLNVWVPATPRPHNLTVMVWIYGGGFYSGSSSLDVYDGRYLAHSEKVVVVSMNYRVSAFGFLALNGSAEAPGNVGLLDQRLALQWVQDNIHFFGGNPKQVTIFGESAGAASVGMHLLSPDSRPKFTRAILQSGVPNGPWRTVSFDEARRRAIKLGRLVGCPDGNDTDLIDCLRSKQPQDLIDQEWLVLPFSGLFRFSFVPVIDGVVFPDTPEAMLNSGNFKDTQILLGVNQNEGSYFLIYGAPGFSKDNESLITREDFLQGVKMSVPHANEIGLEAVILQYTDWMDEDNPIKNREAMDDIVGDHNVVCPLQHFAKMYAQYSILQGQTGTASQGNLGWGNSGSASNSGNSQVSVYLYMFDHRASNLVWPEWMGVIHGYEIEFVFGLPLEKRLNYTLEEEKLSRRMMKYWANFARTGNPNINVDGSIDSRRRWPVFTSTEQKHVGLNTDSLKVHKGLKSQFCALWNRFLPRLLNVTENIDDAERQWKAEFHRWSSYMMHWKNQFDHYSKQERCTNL
T1 sequence (P06276 29-602, species assumed): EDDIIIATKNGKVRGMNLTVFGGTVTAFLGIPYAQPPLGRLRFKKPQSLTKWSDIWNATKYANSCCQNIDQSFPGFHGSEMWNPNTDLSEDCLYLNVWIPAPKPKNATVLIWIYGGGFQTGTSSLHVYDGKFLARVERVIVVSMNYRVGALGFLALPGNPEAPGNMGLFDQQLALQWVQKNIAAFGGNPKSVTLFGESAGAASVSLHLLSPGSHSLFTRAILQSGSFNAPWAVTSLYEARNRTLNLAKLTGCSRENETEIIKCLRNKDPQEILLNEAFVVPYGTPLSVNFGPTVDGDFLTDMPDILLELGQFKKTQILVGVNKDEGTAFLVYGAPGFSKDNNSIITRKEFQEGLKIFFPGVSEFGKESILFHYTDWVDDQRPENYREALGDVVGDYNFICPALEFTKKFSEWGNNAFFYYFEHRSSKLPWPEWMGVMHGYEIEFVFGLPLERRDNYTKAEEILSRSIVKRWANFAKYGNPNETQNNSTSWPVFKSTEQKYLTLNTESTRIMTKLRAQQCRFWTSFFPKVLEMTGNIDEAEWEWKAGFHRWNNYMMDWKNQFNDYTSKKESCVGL

O=C(NCCCCCC[P+](c1ccccc1)(c1ccccc1)c1ccccc1)c1ccc(O)c(O)c1 [AntiOxBEN1]
cellular metabolic activity (resazurin reduction), cytotoxicity (HepG2 cells): dose-dependent toxicity
cellular metabolic activity (MTT reduction), cytotoxicity (SH-SY5Y cells [1]): dose-dependent toxicity
SI: BChE selectivity index = IC50(AChE)/IC50(BChE) (BChE [2]): > 588
IC50 (BChE [2]; [13]): 0.085 ± 0.005 µM
Ki (BChE [3]): 0.0295 µM
BChE inhibition mechanism (BChE [3]; [14]): non-competitive
neuroprotective effect against Aβ1–42 peptide-induced cytotoxicity (SH-SY5Y cells [4]): significantly prevented Aβ1–42 peptide-induced dysfunction/cell death
Ep (oxidation potential) [5]: 219^* mV
IC50 [6]: 31 ± 0.8 µM
IC50 [7]: 20.7 ± 0.8 µM
IC50 (AChE [8]): > 50 µM
effect on AChE (AChE [8]; at 50 μM): did not have any effect

O=C(NCCCCCC[P+](c1ccccc1)(c1ccccc1)c1ccccc1)c1cc(O)c(O)c(O)c1 [AntiOxBEN2]
cellular metabolic activity (resazurin reduction), cytotoxicity (HepG2 cells): did not alter cellular metabolic activity
cellular metabolic activity (MTT reduction), cytotoxicity (SH-SY5Y cells [1]): did not alter cellular metabolic activity
SI: BChE selectivity index = IC50(AChE)/IC50(BChE) (BChE [2]): 86
IC50 (BChE [2]; [13]): 0.474 ± 0.017 µM
neuroprotective effect against Aβ1–42 peptide-induced cytotoxicity (SH-SY5Y cells [4]): more evident
Ep (oxidation potential) [5]: 115^* mV
IC50 [6]: 14 ± 0.3 µM
IC50 [7]: 6.5 ± 0.5 µM
IC50 (AChE [8]): 40.5 ± 7 µM

O=C(NCCCCCCCC[P+](c1ccccc1)(c1ccccc1)c1ccccc1)c1ccc(O)c(O)c1.[Br-] [Compound 15, (8-(3,4-Dihydroxybenzamido)octyl)triphenylphosphonium bromide]
cellular metabolic activity (resazurin reduction), cytotoxicity (HepG2 cells): dose-dependent toxicity
cellular metabolic activity (MTT reduction), cytotoxicity (SH-SY5Y cells [1]): dose-dependent toxicity
IC50 (BChE [2]): 0.106 ± 0.005 µM
SI: BChE selectivity index = IC50(AChE)/IC50(BChE) (BChE [2]): 106
Ep (oxidation potential) [9]: 216 mV
IC50 [10]: 23.5 ± 1.3 µM
IC50 (AChE [8]): 11.2 ± 0.8 µM
IC50 [11]: 31.2 ± 0.9 µM

O=C(NCCCCCCCC[P+](c1ccccc1)(c1ccccc1)c1ccccc1)c1cc(O)c(O)c(O)c1.[Br-] [Compound 16, (8-(3,4,5-Trihydroxybenzamido)octyl)triphenylphosphonium bromide]
cellular metabolic activity (resazurin reduction), cytotoxicity (HepG2 cells): did not alter cellular metabolic activity
cellular metabolic activity (MTT reduction), cytotoxicity (SH-SY5Y cells [1]): did not alter cellular metabolic activity
IC50 (BChE [2]): 0.255 ± 0.009 µM
SI: BChE selectivity index = IC50(AChE)/IC50(BChE) (BChE [2]): 62
neuroprotective effect against Aβ1–42 peptide-induced cytotoxicity (SH-SY5Y cells [4]): more evident
Ep (oxidation potential) [9]: 121 mV
IC50 [10]: 6.8 ± 0.6 µM
IC50 (AChE [8]): 15.7 ± 0.9 µM
IC50 [11]: 16.8 ± 1.6 µM

O=C(NCCCCCCCCCC[P+](c1ccccc1)(c1ccccc1)c1ccccc1)c1ccc(O)c(O)c1.[Br-] [Compound 17, (10-(3,4-Dihydroxybenzamido)decyl)triphenylphosphonium bromide]
cellular metabolic activity (resazurin reduction), cytotoxicity (HepG2 cells): dose-dependent toxicity
cellular metabolic activity (MTT reduction), cytotoxicity (SH-SY5Y cells [1]): dose-dependent toxicity
IC50 (BChE [2]): 0.195 ± 0.02 µM
neuroprotective effect against Aβ1–42 peptide-induced cytotoxicity (SH-SY5Y cells [4]): more evident
Ep (oxidation potential) [9]: 210 mV
IC50 [10]: 19.4 ± 1 µM
IC50 (AChE [8]): 7.7 ± 0.4 µM
IC50 [11]: 31 ± 0.6 µM

O=C(NCCCCCCCCCC[P+](c1ccccc1)(c1ccccc1)c1ccccc1)c1cc(O)c(O)c(O)c1.[Br-] [Compound 18, (10-(3,4,5-Trihydroxybenzamido)decyl)triphenylphosphonium bromide]
cellular metabolic activity (resazurin reduction), cytotoxicity (HepG2 cells): did not alter cellular metabolic activity
cellular metabolic activity (resazurin reduction) (HepG2 cells; HepG2, 10 and 50 μM): slightly increased
cellular metabolic activity (MTT reduction) (SH-SY5Y cells [1]; SH-SY5Y, 1 and 10 μM): slightly increased
cellular metabolic activity (MTT reduction), cytotoxicity (SH-SY5Y cells [1]): did not alter cellular metabolic activity
Ki (AChE [12]): 6.6 µM
AChE inhibition mechanism (AChE [12]; [14]): non-competitive
IC50 (BChE [2]): 0.553 ± 0.022 µM
SI: BChE selectivity index = IC50(AChE)/IC50(BChE) (BChE [2]): 13
neuroprotective effect against Aβ1–42 peptide-induced cytotoxicity (SH-SY5Y cells [4]): significantly prevented Aβ1–42 peptide-induced dysfunction/cell death
Ep (oxidation potential) [9]: 114 mV
IC50 [10]: 7.4 ± 0.5 µM
IC50 (AChE [8]): 7.2 ± 0.5 µM
IC50 [11]: 10.2 ± 1.1 µM

Aβ1–42 [reference compound]
decrease of cell viability compared to control (SH-SY5Y cells [4]; Aβ1–42 peptide 25 μM, 48 h, resazurin): about 28%
